Assay results as given in patent US20030206968A1, “Fungicidal mixtures” (priority 1999, published 2003).

How the values were obtained:
Assay type in all cases: in vivo
Septoria tritici = assay: Greenhouse, Septoria tritici on wheat, 1 day residual; conditions: Example 9
Procedure: (§1) The trials are carried out under greenhouse (Examples 1 to 32) or field conditions (Examples 33 to 40) in residual or curative applications. The fungicides are applied in single treatments, or in a combination comprising an azolopyrimidine of formula I and a compound selected from the classes (A), (B) and (C) as defined above. The compounds are applied in form of an aqueous spray mix obtained from a concentrated formulation or the technical material.
(§2) 1. Seed is planted in 6 cm diameter plastic pots and maintained in the greenhouse.
(§3) 2. When the primary leaf is fully expanded in the case of cereals or several leaves are present in the case of dicots, formulated test compounds are sprayed with a three nozzle overhead fungicide sprayer to near run-off. Alternatively, a single nozzle overhead track sprayer is used for application of the compounds to cereals at a rate of 200 l/ha. Plants are then allowed to air-dry.
(§4) 3. Inoculation precedes treatment in the case of curative evaluations and follows treatment in case of residual evaluations. For inoculation of powdery mildew disease, plants are set up on greenhouse benches with bottom watering mats and inoculated by dusting them with conidia from infected plants. Between inoculation and treatment for curative evaluations and between treatment and inoculation for residual evaluations, plants are maintained in the greenhouse with bottom watering.
(§5) For inoculation of non-powdery mildew diseases, an aqueous spore suspension of the pathogen is applied to the plant and the plants are kept 1-2 days in a moist infection chamber before being returned to the greenhouse where they are maintained by bottom watering.
(§6) 4. Disease on the foliage as percent leaf area with disease symptoms/signs is evaluated about 7 days after inoculation. In the case of wheat, the tips and bases of the leaves are excluded from the evaluation. [formula]
(§7) 1. Technical compounds are formulated in a solvent/surfactant system consisting of 5% acetone and 0.05% Tween 20 in deionized water. Compounds are dissolved in acetone prior to addition of the water; the Tween 20 can be added through either the acetone or the water. Dilutions are made using the solvent/surfactant system. Formulated compounds are prepared using deionized water.
(§8) 2. Two kinds of controls are included: Plants treated with the solvent/surfactant solution and inoculated (Solvent Blank). Untreated plants which are inoculated (Inoculated Control).
(§9) Assessments of the diseases took place at the indicated day after the application of the compounds. Per cent infected leaf area infected was evaluated. The efficacy of the compounds/compounds mixtures to control the diseases was calculated by using the formula given above under item 4: […]
(§10) Synergy was calculated using the % disease control values of specific treatments for the two COLBY formula given hereinabove
Fungicidal efficacy of the mixture of Azolopyrimidine C+metconazole (1 day residual) against Septoria tritici on wheat The tank mix was obtained from a SC formulation containing 100 g Azoplopyrimidine C per liter and an EC containing 100 g metconazole per liter.

Pyrenophora teres = assay: Greenhouse, Pyrenophora teres on barley, 1 day residual; conditions: Example 10
Procedure: as §1, §2, §3, §4, §5, §6, §7, §8, §9, §10
Fungicidal efficacy of the mixture of Azolopyrimidine C+metconazole (1 day residual) against Pyrenophora teres on barley The tank mix was obtained from a SC formulation containing 100 g Azolopyrimidine C per liter and an EC containing 100 g metconazole per liter.

Erysiphe cichoracearum = assay: Greenhouse, Erysiphe cichoracearum on cucumbers, 1 day residual
Procedure: as §1, §2, §3, §4, §6, §7, §8, §9, §10
Fungicidal efficacy of the mixture of Azolopyrimidine C+triforine (1 day residual) against Erysiphe cichoracearum on cucumbers
the tank mix was obtained from a SC formulation containing 100 g of Azolopyrimidine C per liter and an DC formulation containing and 190 g of triforine per liter.
Fungicidal efficacy of the mixture of Azolopyrimidine C+cyprodinil (1 day residual) against Erysiphe cichoracearum on cucumbers The tank mix was obtained from a SC formulation containing 100 g of Azolopyrimidine C per liter and a WG formulation containing and 750 g of cyprodinil per kg.

Blumeria graminis [1] = assay: Greenhouse, Blumeria graminis on wheat, 2 days curative; conditions: Example 27
Procedure: as §1, §2, §3, §4, §6, §7, §8, §9, §10
Fungicidal efficacy of the mixture of (S)-Azolopyrimidine C in admixture with Azoxystrobin or Trifloxystrobin (2 days curative) against Blumeria graminis on wheat. The tank mixes were obtained from technical material of (S)-Azolopyrimidine C and Azoxystrobin or Trifloxystrobin.

Puccinia recondita = assay: Greenhouse, Puccinia recondita on wheat, 4 days residual; conditions: Example 31
Procedure: as §1, §2, §3, §4, §5, §6, §7, §8, §9, §10
Fungicidal efficacy of the mixture of (S)-Azolopyrimidine C in admixture with Azoxystrobin or Trifloxystrobin (4 days residual) against Puccinia recondita on wheat. The tank mixes were obtained from technical material of (S)-Azolopyrimidine C and Azoxystrobin or Trifloxystrobin.

Blumeria graminis [2] = assay: Greenhouse, Blumeria graminis on barley, 4 days residual; conditions: Example 32
Procedure: as §1, §2, §3, §4, §6, §7, §8, §9, §10
Fungicidal efficacy of the mixture of (S)-Azolopyrimidine C in admixture with Azoxystrobin (4 days residual) against Blumeria graminis on barley. The tank mixes were obtained from technical material of (S)-Azolopyrimidine C and Azoxystrobin.

CC(Nc1c(-c2c(F)cc(F)cc2F)c(Cl)nc2ncnn12)C(F)(F)F (stereo not shown) [Azolopyrimidine C, 5-chloro-6-(2,4,6-trifluorophenyl)-7-(1,1,1-trifluoroprop-2-ylamino)-[1,2,4]triazolo[1,5-a]pyrimidine]
Observed Efficacy (Septoria tritici; dose rate 2 ppm): 0%
Observed Efficacy (Septoria tritici; dose rate 5 ppm): 0%
Observed Efficacy (Septoria tritici; dose rate 8 ppm): 0%
Observed Efficacy (Septoria tritici; dose rate 25 ppm): 68%
Observed Efficacy (Septoria tritici; dose rate 40 ppm): 91%
Observed Efficacy (Pyrenophora teres; dose rate 10 ppm): 0%
Observed Efficacy (Pyrenophora teres; dose rate 25 ppm): 0%
Observed Efficacy (Pyrenophora teres; dose rate 40 ppm): 0%
Observed Efficacy (Pyrenophora teres; dose rate 50 ppm): 0%
Observed Efficacy (Pyrenophora teres; dose rate 125 ppm): 0%
Observed Efficacy (Erysiphe cichoracearum; Example 23, dose rate 1 ppm): 0%
Observed Efficacy (Erysiphe cichoracearum; Example 23, dose rate 4 ppm): 7%
Observed Efficacy (Erysiphe cichoracearum; Example 24, dose rate 1 ppm): 0%
Observed Efficacy (Erysiphe cichoracearum; Example 24, dose rate 4 ppm): 7%

5-chloro-6-(2,4,6-trifluorophenyl)-7-(1,1,1-trifluoroprop-2-ylamino)-[1,2,4]triazolo[1,5-a]pyrimidine [(S)-Azolopyrimidine C]
Observed Efficacy (Blumeria graminis [1]; dose rate 1.6 ppm): 0%
Observed Efficacy (Blumeria graminis [1]; dose rate 3.1 ppm): 0%
Observed Efficacy (Blumeria graminis [1]; dose rate 6.3 ppm): 10%
Observed Efficacy (Blumeria graminis [1]; dose rate 12.5 ppm): 40%
Observed Efficacy (Blumeria graminis [1]; dose rate 25 ppm): 61%
Observed Efficacy (Blumeria graminis [1]; dose rate 50 ppm): 81%
Observed Efficacy (Puccinia recondita; dose rate 3.1 ppm): 0%
Observed Efficacy (Puccinia recondita; dose rate 6.3 ppm): 9%
Observed Efficacy (Puccinia recondita; dose rate 12.5 ppm): 16%
Observed Efficacy (Puccinia recondita; dose rate 25 ppm): 27%
Observed Efficacy (Puccinia recondita; dose rate 50 ppm): 50%
Observed Efficacy (Blumeria graminis [2]; dose rate 1.6 ppm): 0%
Observed Efficacy (Blumeria graminis [2]; dose rate 3.1 ppm): 3%
Observed Efficacy (Blumeria graminis [2]; dose rate 6.3 ppm): 8%
Observed Efficacy (Blumeria graminis [2]; dose rate 12.5 ppm): 17%
Observed Efficacy (Blumeria graminis [2]; dose rate 25 ppm): 22%
Observed Efficacy (Blumeria graminis [2]; dose rate 50 ppm): 28%
